From patent publication US9345786B2, “Maytansinoid derivatives” (priority 2013, dated 2016)

Experiments:
tubulin = experiment: HTS-Tubulin Polymerization Assay Kit, tubulin polymerization in vitro; format: biochemical; conditions: 1 μM solution, 10 μL + 100 μL 4 mg/ml tubulin, 37° C., 405 nm; compared with the PBS buffer (FIG. 6)
Procedure: According to the instruction of kit, pre-warm the 96-well plate to 37° C. for 30 min prior to starting the assay. At the same time, the spectrophotometer (SpectraMax, Molecular Devices, USA) was set as follow: wavelength, 405 nm; temperature, 37° C.; Kinetic, 31 cycles of 1 reading per minute. Make cold G-PEM buffer (990 μL General Tubulin Buffer+10 μL GTP Stock) and keep it on ice. […] Immediately place the plate into the spectrophotometer and start recording using the kinetic setup described above. […] Nocodazole, the tubulin polymerization inhibitor, was set as a negative control. The metabolite Cys-3AA-MDC was prepared by reaction of 3AA-MDC with cysteine under the base DIEA in CH2Cl2. LC-MS (M+H^+) calc.: 964.5. found: 964.2. Rt: 12.97 min. The metabolite Lys-MCC-MDC was prepared by reaction of SMCC-MDC with lysine under the base DIEA in DMF. LC-MS (M+H^+) calc.: 1103.7. found: 1103.2. Rt: 13.00 and 13.18 min.

[1] = tested on: human acute lymphoblastic leukemia line C.E.M.; conditions: cited from earlier work
[2] = tested on: Lewis lung carcinoma and B-16 melanocarcinoma solid murine tumor models; conditions: mouse, in vivo; cited from earlier work
[3] = tested on: multiple cancer cell lines; conditions: cited from earlier work

Structure (SMILES)	inhibition of tubulin polymerization (tubulin)	also measured
COc1cc2cc(c1Cl)N(C)C(=O)C[C@H](OC(=O)[C@H](C)N(C)C(=O)CCCCCN1C(=O)C=CC1=O)[C@]1(C)OC1[C@H](C)[C@@H]1C[C@@](O)(NC(=O)O1)[C@H](OC)/C=C/C=C(\C)C2 (stereo partly drawn) [3AA-MDC, N2′-deacetyl-N2′-(6-maleimido-1-oxo-hexyl)maytansine]	more significantly inhibited the tubulin polymerization	
COc1cc2cc(c1Cl)N(C)C(=O)C[C@H](OC(=O)[C@H](C)N(C)C(=O)CCSC1CC(=O)N(CC3CCC(C(=O)NCCCC[C@H](N)C(=O)O)CC3)C1=O)[C@]1(C)O[C@H]1[C@H](C)[C@@H]1C[C@@](O)(NC(=O)O1)[C@H](OC)/C=C/C=C(\C)C2 (stereo partly drawn) [Lys-mcc-MDC]	more significantly inhibited the tubulin polymerization	
COc1cc2cc(c1Cl)N(C)C(=O)C[C@H](OC(=O)[C@H](C)N(C)C(C)=O)[C@]1(C)O[C@H]1[C@H](C)[C@@H]1C[C@@](O)(NC(=O)O1)[C@H](OC)/C=C/C=C(\C)C2 [Maytansine]		inhibitory concentration, as low as [1]: ≥ 10^−7 μg/mL; inhibitory activity against tumors [2]: significant inhibitory activity
COc1cc2cc(c1Cl)N(C)C(=O)C[C@H](OC(=O)C(C)C)[C@]1(C)O[C@@H]1[C@H](C)[C@@H]1C[C@@](O)(NC(=O)O1)[C@H](OC)/C=C/C=C(\C)C2 [Ansamitocin P3]		efficacy against cancer cell lines [3]: effective against multiple cancer cell lines
CN[C@@H](C)C(=O)OC1CC(=O)N(C)c2cc(cc(OC)c2Cl)C/C(C)=C/C=C/C(OC)C2(O)CC(OC(=O)N2)C(C)C2OC12C (stereo partly drawn) [Cys-3AA-MDC]	more significantly inhibited the tubulin polymerization	
